The structures appear in SMILES notation.

human ACC2, sequence (O00763 129-2458): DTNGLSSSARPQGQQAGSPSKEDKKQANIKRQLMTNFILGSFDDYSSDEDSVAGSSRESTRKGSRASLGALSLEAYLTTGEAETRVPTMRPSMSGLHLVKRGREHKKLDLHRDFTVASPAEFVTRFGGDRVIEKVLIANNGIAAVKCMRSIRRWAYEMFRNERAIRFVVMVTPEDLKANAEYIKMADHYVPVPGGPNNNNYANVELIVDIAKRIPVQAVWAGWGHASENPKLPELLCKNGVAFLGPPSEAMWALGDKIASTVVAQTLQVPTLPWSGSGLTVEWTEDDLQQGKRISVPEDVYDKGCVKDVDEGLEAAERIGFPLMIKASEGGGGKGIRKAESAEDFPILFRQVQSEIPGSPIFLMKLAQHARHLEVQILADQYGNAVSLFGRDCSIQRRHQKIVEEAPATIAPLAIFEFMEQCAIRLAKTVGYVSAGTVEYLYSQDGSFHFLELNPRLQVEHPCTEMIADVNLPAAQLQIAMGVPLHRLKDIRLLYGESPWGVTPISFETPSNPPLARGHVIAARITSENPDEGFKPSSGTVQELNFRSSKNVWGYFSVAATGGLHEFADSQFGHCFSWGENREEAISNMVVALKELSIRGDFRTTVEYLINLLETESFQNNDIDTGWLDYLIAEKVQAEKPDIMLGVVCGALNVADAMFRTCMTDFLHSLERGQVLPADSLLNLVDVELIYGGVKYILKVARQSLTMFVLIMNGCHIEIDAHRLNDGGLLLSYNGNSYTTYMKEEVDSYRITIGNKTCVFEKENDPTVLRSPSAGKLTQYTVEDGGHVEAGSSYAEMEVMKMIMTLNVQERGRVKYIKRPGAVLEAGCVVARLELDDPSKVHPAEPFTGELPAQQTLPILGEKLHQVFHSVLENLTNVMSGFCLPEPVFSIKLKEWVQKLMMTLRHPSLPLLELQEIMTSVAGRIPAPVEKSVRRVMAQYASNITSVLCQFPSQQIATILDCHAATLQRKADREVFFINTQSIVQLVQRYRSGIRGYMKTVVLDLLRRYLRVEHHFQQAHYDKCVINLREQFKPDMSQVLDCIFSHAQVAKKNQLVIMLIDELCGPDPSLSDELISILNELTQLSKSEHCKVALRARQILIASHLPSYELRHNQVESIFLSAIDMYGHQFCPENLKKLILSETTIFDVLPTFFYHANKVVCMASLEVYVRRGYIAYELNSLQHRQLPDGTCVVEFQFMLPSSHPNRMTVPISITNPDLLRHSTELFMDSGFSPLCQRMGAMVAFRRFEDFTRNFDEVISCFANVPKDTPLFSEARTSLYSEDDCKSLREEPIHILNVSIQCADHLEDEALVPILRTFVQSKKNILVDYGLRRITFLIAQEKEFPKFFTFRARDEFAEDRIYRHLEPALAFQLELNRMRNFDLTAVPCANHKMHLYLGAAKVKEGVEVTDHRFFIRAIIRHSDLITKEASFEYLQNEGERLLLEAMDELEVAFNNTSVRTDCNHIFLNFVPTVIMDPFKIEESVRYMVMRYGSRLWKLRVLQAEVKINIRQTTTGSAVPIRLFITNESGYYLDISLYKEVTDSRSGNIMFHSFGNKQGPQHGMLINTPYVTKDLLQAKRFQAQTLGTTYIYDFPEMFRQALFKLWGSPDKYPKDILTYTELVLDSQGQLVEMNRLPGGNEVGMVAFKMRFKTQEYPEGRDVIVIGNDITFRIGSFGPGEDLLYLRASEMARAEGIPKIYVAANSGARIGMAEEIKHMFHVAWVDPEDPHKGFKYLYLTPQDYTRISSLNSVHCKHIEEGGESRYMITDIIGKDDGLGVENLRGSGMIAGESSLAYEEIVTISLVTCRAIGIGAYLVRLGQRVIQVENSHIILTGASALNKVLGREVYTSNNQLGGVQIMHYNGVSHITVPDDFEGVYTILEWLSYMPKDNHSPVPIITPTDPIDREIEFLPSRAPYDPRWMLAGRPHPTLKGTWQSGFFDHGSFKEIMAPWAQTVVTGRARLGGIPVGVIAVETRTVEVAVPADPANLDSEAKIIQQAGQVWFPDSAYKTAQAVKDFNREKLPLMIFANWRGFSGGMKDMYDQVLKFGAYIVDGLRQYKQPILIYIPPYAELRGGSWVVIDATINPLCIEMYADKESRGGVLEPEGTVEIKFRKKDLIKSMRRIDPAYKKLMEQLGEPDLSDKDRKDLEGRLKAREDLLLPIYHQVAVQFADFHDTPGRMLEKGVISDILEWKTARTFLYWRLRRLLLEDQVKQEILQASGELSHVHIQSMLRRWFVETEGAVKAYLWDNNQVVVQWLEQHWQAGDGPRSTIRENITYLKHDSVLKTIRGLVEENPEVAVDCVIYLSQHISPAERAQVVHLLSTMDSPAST

This assay deals with human ACC2 (Homo sapiens (Human), UniProt O00763). Put plainly: ACC2 assay, spectrophotometric 384 well assay (NADH-linked, coupled lactate dehydrogenase/pyruvate kinase reaction). It is filed as biochemical. The note with it: hACC2 construct lacking the 128 N-terminal amino acids; 25° C., 340 nm over 15 minutes. Summed up:
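Kinetic NADH-linked assay (pyruvate kinase/lactate dehydrogenase coupling) with baculovirus-expressed hACC2 missing its first 128 amino acids. Started with 500 μM ATP and 200 μM each NADH and acetyl-CoA; slope followed 15 min at 25 °C, pH 7.5. No-acetyl-CoA wells define 0%; IC50 by nonlinear regression.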
Compound `CCOc1ccc(C#Cc2ccc(CC(C)N(C)C(=O)CC)cc2)cc1` (centres unmarked) [Example 18.2] yielded a half-maximal inhibitory concentration (IC50) of 4400 nM.

`COCCOc1cc(C#Cc2ccc(CC(C)NC(C)=O)cc2)ccn1` (centres unmarked) [Example 20.1, N-(2-{4-[2-(2-Methoxy-ethoxy)-pyridin-4-ylethynyl]-phenyl}-1-methyl-ethyl)-acetamide; compound with trifluoro-acetic acid] yielded an IC50 of 980 nM.

In turn, `CCOc1cc(C#Cc2ccc(CC(C)NC(=O)N(C)C)cc2)ccn1` (centres unmarked) [Example 20.2] came in with a 50% inhibitory concentration (IC50) of 600 nM.

In the case of `CC(=O)N[C@@H](C)Cc1ccc(C#Cc2ccc(OC(C)C)cc2)cc1` [Example 23.2], 130 nM corresponded to half-maximal inhibition (IC50).

As to `CC(=O)N[C@@H](C)Cc1ccc(C#Cc2ccc(OCC(C)C)cc2)cc1` [Example 23.3], the 50% inhibitory concentration (IC50) was found to be 400 nM.

On to `CC(=O)N[C@@H](C)Cc1ccc(C#Cc2ccc(C(C)(C)C)cc2)cc1` [Example 23.4], for which the IC50 stood at 90 nM.

On to `CCOc1ccc(C#Cc2ccc(C[C@H](C)NC(C)=O)cc2)cn1` [Example 23.5], for which the IC50 was found to be 80 nM.

`CCCOc1ccc(C#Cc2ccc(C[C@H](C)NC(C)=O)cc2)cc1` [Example 23.6] had a half-inhibitory concentration (IC50) of 70 nM.

On to `CC(=O)NC(C)Cc1ccc(C#Cc2ccc(-c3cnco3)cc2)cc1` (centres unmarked) [Example 23.7], for which the IC50 was found to be 1600 nM.

Compound `CCCOc1ccc(C#Cc2ccc(CC(C)NC(C)=O)cc2)nc1` (centres unmarked) [Example 23.8] gave an IC50 of 180 nM.

`CCC(C)Oc1ccc(C#Cc2ccc(CC(C)NC(C)=O)cc2)cc1` (centres unmarked) [Example 23.9] returned a concentration for half-maximal inhibition (IC50) of 140 nM.

In the case of `CSc1ccc(C#Cc2ccc(CC(C)NC(C)=O)cc2)cc1` (centres unmarked) [Example 23.10], half-maximal inhibition (IC50) was put at 220 nM.

On to `CC(Cc1ccc(C#Cc2ccc(Oc3cncnc3)cc2)cc1)NC(=O)C1CC1` (centres unmarked) [Example 23.11], for which half-maximal inhibition (IC50) was put at 1400 nM.

For `CC(=O)NC(C)Cc1ccc(C#Cc2ccc(OCC(C)C)cn2)cc1` (centres unmarked) [Example 23.12], the IC50 amounted to 650 nM.

As to `CCOc1ccc(C#Cc2ccc(CC(C)NC(C)=O)cc2)nc1` (centres unmarked) [Example 23.13], inhibition was half-maximal at 450 nM (IC50).

Regarding `CCCOc1ccc(C#Cc2ccc(C(C)(C)CNC(C)=O)cc2)nc1` [Example 23.14], the concentration for half-maximal inhibition (IC50) was determined as 650 nM.

For `CC(=O)NC(C)(C)c1ccc(C#Cc2cnc(OC3CCC3)nc2)cc1` [Example 23.15], the IC50 stood at 21500 nM.

On to `CCCOc1ccc(C#Cc2ccc(CC(C)NC(C)=O)cc2)cc1` (centres unmarked) [Example 24.1, N-{1-Methyl-2-[4-(4-propoxy-phenylethynyl)-phenyl]-ethyl}-acetamide], for which inhibition was half-maximal at 70 nM (IC50).

For the compound `CCOc1ccc(C#Cc2ccc(C[C@H](C)NC(C)=O)cc2)cc1` [Example 24.2], 80 nM corresponded to half-maximal inhibition (IC50).

`CC(=O)N[C@@H](C)Cc1ccc(C#Cc2ccc(Oc3ccccc3)nc2)cc1` [Example 24.3] showed a concentration for half-maximal inhibition (IC50) of 170 nM.

Regarding `CC(=O)NC(C)Cc1ccc(C#Cc2cnc(OC3CCCC3)nc2)cc1` (centres unmarked) [Example 27.1, N-{2-[4-(2-Cyclopentyloxy-pyrimidin-5-ylethynyl)-phenyl]-1-methyl-ethyl}-acetamide], the IC50 worked out at 200 nM.

As to `CCOc1ccc(C#Cc2ccc(CC(COC)NC(C)=O)cc2)cc1` (centres unmarked) [Example 27.2], the half-inhibitory concentration (IC50) worked out at 1200 nM.

As to `CCOc1ccc(C#Cc2ccc(CC(CC)NC(C)=O)cc2)cc1` (centres unmarked) [Example 27.3], the midpoint of inhibition, the IC50, lay at 150 nM.

`CCOc1ccc(C#Cc2ccc(C(C)NC(=O)OC)cc2)cc1` (centres unmarked) [Example 29.1, {1-[4-(4-Ethoxy-phenylethynyl)-phenyl]ethyl}-carbamic acid methyl ester] yielded an IC50 of 13100 nM.

On to `CCOc1ccc(C#Cc2ccc(CC(C)NC(=O)OC)cc2)cc1` (centres unmarked) [Example 29.2], for which the IC50 stood at 310 nM.

In the case of `CC(=O)NC(C)Cc1ccc(C#Cc2ccc(OCc3nccs3)cc2)cc1` (centres unmarked) [Example 31.1, N-(1-Methyl-2-(4-(4-(thiazol-2-ylmethoxy)-phenylethynyl)-phenyl)-ethyl)-acetamide], it took 1700 nM to reach half-maximal inhibition (IC50).

On to `CC(=O)NC(C)Cc1ccc(C#Cc2ccc(OC3COC3)cc2)cc1` (centres unmarked) [Example 31.2], for which the concentration for half-maximal inhibition (IC50) was determined as 200 nM.

In turn, `CCCOc1ccc(C#Cc2ccc(C(C)CNC(C)=O)cc2)cc1` (centres unmarked) [Example 32.1, N-{2-[4-(4-Propoxy-phenylethynyl)-phenyl]-propyl}-acetamide] registered a 50% inhibitory concentration (IC50) of 70 nM.

`CCCOc1ccc(C#Cc2ccc(C(C)CNC(=O)C3CC3)cc2)cc1` (centres unmarked) [Example 32.2] displayed a half-maximal inhibitory concentration (IC50) of 200 nM.

`CC(=O)NCC(C)c1ccc(C#Cc2cnc(OC3CCC3)nc2)cc1` (centres unmarked) [Example 32.3] showed an IC50 of 70 nM.

Consider `CC(CNC(=O)C1CC1)c1ccc(C#Cc2cnc(OC3CCC3)nc2)cc1` (centres unmarked) [Example 32.4], for which half-maximal inhibition (IC50) required 810 nM.

Turning to `CCCOc1ccc(C#Cc2ccc(C(C)CNC(=O)N(C)C)cc2)cc1` (centres unmarked) [Example 33.1, 1,1-Dimethyl-3-{2-[4-(4-propoxy-phenylethynyl)-phenyl]-propyl}-urea], the IC50 turned out to be 160 nM.

`CC(CNC(=O)N(C)C)c1ccc(C#Cc2cnc(OC3CCC3)nc2)cc1` (centres unmarked) [Example 33.2] returned an IC50 of 130 nM.

Take `CCNC(=O)NCC(C)c1ccc(C#Cc2cnc(OC3CCC3)nc2)cc1` (centres unmarked) [Example 33.3]: half-maximal inhibition (IC50) was put at 2300 nM.

`COC(=O)NCC(C)c1ccc(C#Cc2cnc(OC3CCC3)nc2)cc1` (centres unmarked) [Example 33.4]: the IC50 turned out to be 520 nM.

In turn, `CCCOc1ccc(C#Cc2ccc(CC(C)(C)NC(C)=O)cc2)cc1` [Example 35.1, N-(1,1-Dimethyl-2-(4-(4-propoxyphenylethynyl)-phenyl)-ethyl)-acetamide] had a half-inhibitory concentration (IC50) of 70 nM.

As to `CCCOc1ccc(C#Cc2ccc(CC(C)(C)NC(=O)C3CC3)cc2)cc1` [Example 35.2], it took 330 nM to reach half-maximal inhibition (IC50).

`CCOc1ccc(C#Cc2ccc(CCNC(C)=O)cn2)cc1` [Example 35.3] came in with a half-inhibitory concentration (IC50) of 26900 nM.

These data come from patent US8835472B2, “Compounds, pharmaceutical compositions and uses thereof” (Boehringer Ingelheim International GmbH, priority 2010, dated 2014).
